Earlier results, collected in patent US20070135395A1, “Novel method for the preparation of intermediates useful for the synthesis fo vitamin d analogues” (Leo Pharma A/S, priority 2004, published 2007).

System: epidermal keratinocytes
Settings: cited: Castelijins et al., Acta Derm. Venereol. 79, 11, 1999

## C=C1/C(=C\C=C2/CCC[C@]3(C)[C@@H]([C@H](C)/C=C/[C@@H](O)C4CC4)CC[C@@H]23)C[C@@H](O)C[C@@H]1O [Calcipotriol, (5Z, 7E, 22E, 24S)-24-cyclopropyl-9,10-secochola-5,7,10(19),22-tetraene-1α-3β-24-triol]
  activity in inhibiting undesirable proliferation of epidermal keratinocytes: strong activity
